The text below walks through data of PMC10045663, “Synthesis, In Vitro Biological Evaluation of Antiproliferative and Neuroprotective Effects and In Silico Studies of Novel 16E-Arylidene-5α,6α-epoxyepiandrosterone Derivatives” (Biomedicines, 2023).

The subject of assay [1] is NHDF cells (normal human dermal fibroblasts). The assay can be described thus: MTT cell proliferation assay, NHDF cells. It counts as cell-based. As to conditions: 72 h, non-tumoral cells, read-out: Estimated IC50, NHDF. The procedure: (§1) LNCaP, PC-3, MCF-7, PNT1A, N27, and NHDF cells were obtained from the American Type Culture Collection (ATCC; Manassas, VA, USA) and were cultured in 75 cm^2 culture flasks at 37 °C in a humidified air incubator with 5% CO2. LNCaP, PC-3, PNT1A, and N27 cells, respectively, were cultured in RPMI 1640 medium (Sigma-Aldrich, Inc. St. Louis, MO, USA) with 10% fetal bovine serum (FBS; Sigma-Aldrich, Inc. St. Louis, MO, USA) and 1% of the antibiotic mixture of 10,000 U/mL penicillin G and […] streptomycin (Sp, Sigma-Aldrich, Inc. St. Louis, MO, USA). MCF-7 cells were cultured in DMEM medium (Sigma-Aldrich, Inc. St. Louis, MO, USA) supplemented with 10% fetal bovine serum (FBS; Sigma-Aldrich, Inc. St. Louis, MO, USA) and 1% antibiotic/antimycotic (10,000 U/mL penicillin G, […] streptomycin, and 25 µg/mL amphotericin B: Ab, Sigma-Aldrich, Inc. St. Louis, MO, USA). Finally, NHDF cells were cultured in RPMI 1640 medium supplemented with 10% FBS, 2 mM L-glutamine, 10 mM HEPES, 1 mM sodium pyruvate, and 1% of the antibiotic/antimycotic Ab, and these cells were used in passages 10th to 14th. For all cell types, the medium was renewed every 2 days until cells nearly reached the confluence state. When cells reach approximately 90–95% confluence, they are gently detached by trypsinization (trypsin-EDTA solution: 0.125 g/L of trypsin and 0.02 g/L of EDTA). Before each experiment, viable cells were counted in a Neubauer chamber by a trypan-blue exclusion assay and adequately diluted in the appropriate complete cell culture medium.
(§2) All tested compounds were dissolved in dimethyl sulfoxide (DMSO; Sigma-Aldrich, Inc. St. Louis, MO, USA) at a concentration of 10 mM and stored at 4 °C. From the mother-solutions, the diluted solutions of the compounds, in different concentrations, were prepared in the respective complete culture medium before each experiment.
(§3) After reaching a confluence state, cells were trypsinized and counted by the trypan-blue exclusion assay and then seeded with an initial density of 2 × 10^4 cells/mL in 96-well culture plates (Nunc, Apogent, Denmark) and left to adhere and grow for 48 h. Subsequently, the medium was removed, and the cells were treated with compound solutions (10 and 50 µM for preliminary studies and 0.01, 0.1, 1, 10, 50, and 100 µM for concentration-response studies) in complete culture medium for 72 h. 5-Fluorouracil (5-FU) was used as a positive control, and untreated cells were used as the negative control. Compounds leading to cell proliferation relative to control clearly below 50%, at 10 µM, or clearly below 25%, at 50 µM, in the screening studies were selected to concentration-response studies in tumoral cell lines. Each experiment was performed in quadruplicate and independently at least two times. The in vitro antiproliferative effects were evaluated by the MTT assay (Sigma-Aldrich, Inc. St. Louis, MO, USA). After the incubation period, the medium was removed, and 100 µL of phosphate buffer saline (PBS, NaCl 137 mM; KCl 2.7 mM; Na2HPO4 10 mM; and KH2PO4 1.8 mM in deionized water with a pH adjusted to 7.4) were used to wash the cells. Then, 100 µL of the MTT solution (5 mg/mL) was prepared in the appropriate serum-free medium and added to each well, followed by incubation for 4 h at 37 °C. Hereafter, the MTT containing medium was removed, and the formazan crystals were dissolved in DMSO. Then, the absorbance was measured at 570 nm using a xMarkTM microplate spectrophotometer from BIO-RAD Laboratories. Cell viability values were expressed as percentages relative to the negative control.

The subject of assay [2] is LNCaP cells (androgen-dependent prostatic cancer). The assay can be described thus: MTT cell proliferation assay, LNCaP cells. It counts as cell-based. As to conditions: 72 h; for IC50: MTT, tumoral cells, read-out: Estimated IC50, LNCaP. The procedure:
as §1, §2, §3

Assay [3] relates to PC-3 cells (androgen-independent prostatic cancer). The assay can be described thus: MTT cell proliferation assay, PC-3 cells. The format is cell-based. The settings on record: 72 h; for IC50: MTT, tumoral cells, read-out: Estimated IC50, PC-3; for decrease on cell proliferation relative to the control: PC-3, 50 µM. On the procedure:
as §1, §2, §3

The test system of assay [4] is all cell lines (NHDF, PNT1A, N27, LNCaP, PC-3, MCF-7). The assay can be described thus: MTT preliminary screening, all cell lines taken together. The format is cell-based. The settings on record: 50 µM, 72 h. The procedure: as §1, §2, §3
Assay [5] relates to MCF-7 cells (estrogen-responsive breast cancer cells). Kind of assay: MTT cell proliferation assay, MCF-7 cells. The format is cell-based. The settings on record: 72 h; for IC50: MTT, tumoral cells, read-out: Estimated IC50, MCF-7. The procedure:
as §1, §2, §3

Assay [6] relates to PNT1A (normal prostate cells). The assay can be described thus: MTT cell proliferation assay, PNT1A cells. The format is cell-based. The settings on record: 72 h, non-tumoral cells, read-out: Estimated IC50, PNT1A. On the procedure:
as §1, §2, §3

Assay [7] concerns N27 (rat dopaminergic neuronal cells). Kind of assay: MTT cell proliferation assay, N27 cells. It counts as cell-based. The settings on record: 72 h, non-tumoral cells, read-out: Estimated IC50, N27. The procedure: as §1, §2, §3
The test system of the next assay is N27 cells. Kind of assay: N27 cell viability after 24 h (MTT), substance alone. The format is cell-based, rat. The settings on record: 50 μM. The procedure: The immortalized rat mesencephalic dopaminergic cell line (N27 cells; a kind gift from Dr. Yoon-Seong Kim, Burnett School of Biomedical Sciences, University of Central Florida) was grown in Roswell Park Memorial Institute (RPMI) 1640 medium (Sigma-Aldrich) containing 2 g/L sodium bicarbonate, 10% fetal bovine serum (FBS; Millipore), and 1 mL/L of penicillin/streptomycin (GIBCO) in a humidified atmosphere of 5% CO2 at 37 °C. Cells were plated at a density of 0.31 × 10^5 cells per cm^2 in 96-well culture plates. […] To assess cell viability, MTT reduction was performed as previously described (Section 2.3) with some modifications. Briefly, after 24 h of cell treatments, 0.5 mg/mL of MTT was added to cells for 4 h at 37 °C. Then, the resultant precipitate was dissolved in 10% SDS and quantified at a wavelength of 570 nm.

In general, IC50 refers to the concentration that inhibits the measured activity by half. In the case of “(E)-16-(2,4-Dichlorobenzylidene)-3-hydroxy-5α ,6α -epoxy-10,13-dimethyl-1,3,4,7,8,9,10,11,12,13,15,16-dodecahydro-2H-cyclopenta[α ]phenanthren-17(14H)-one [Compound 22]”, the IC50 is 15 µM in assay [1]; 15 µM in assay [2]; 44.5 µM in assay [3]; 14.5 µM in assay [5]; 14.4 µM in assay [6]; 16.8 µM in assay [7]. For the same compound, in assay [2] (LNCaP, 10 µM), the “effect on LNCaP cell proliferation” value is “no relevant effects”. The “decrease in LNCaP cell proliferation” value in assay [2] (LNCaP, 50 µM) was “higher than 75%”. Besides, in assay [3], the “decrease on cell proliferation relative to the control” value is recorded as “higher than 75%”. The relative cell proliferation in assay [4] is no more than 50%. Also, in assay [5] (MCF-7, 50 µM), the “cell proliferation relative to the control” value is roughly 0%.
Regarding “(E)-16-Benzylidene-3-hydroxy-5α,6α-epoxy-10,13-dimethyl-1,3,4,7,8,9,10,11,12,13,15,16-dodecahydro-2H-cyclopenta[α]phenanthrene-17(14H)-one [Compound 15]”, the IC50 is 39.5 µM in assay [1]; 27.4 µM in assay [2]; 17 µM in assay [3]; 42.7 µM in assay [5]; 33.1 µM in assay [6]; 9.21 µM in assay [7]. Besides, the “decrease on cell proliferation relative to the control” value in assay [3] was “higher than 75%”. Also, the relative cell proliferation in assay [4] is on record as no more than 50%.
`CC12CCC3C(CC4OC45CC(O)CCC35C)C1CC(=Cc1cccs1)C2=O` (stereo not drawn) [Compound 18, (E)-16-(Thiophen-2-ylmethylene)-3-hydroxy-5α ,6α -epoxy-10,13-dimethyl-1,3,4,7,8,9,10,11,12,13,15,16-dodecahydro-2H-cyclopenta[α ]phenanthren-17(14H)-one]: the IC50 in assay [1] is 29.7 µM; in assay [3] it was 37.6 µM; in assay [6], 29.6 µM; in assay [7], 12.6 µM.
Take `COc1ccc(C=C2CC3C4CC5OC56CC(O)CCC6(C)C4CCC3(C)C2=O)cc1` (stereo not drawn) [Compound 16, (E)-16-(4-Metoxybenzylidene)-3-hydroxy-5α ,6α -epoxy-10,13-dimethyl-1,3,4,7,8,9,10,11,12,13,15,16-dodecahydro-2H-cyclopenta[α ]phenanthren-17(14H)-one]: the IC50 in assay [1] is 39.3 µM; in assay [3], 20.1 µM; in assay [6], 54.5 µM; in assay [7], 33.2 µM.
Consider `NCCc1cc(O)c(O)cc1O` [Compound 6-OHDA, 6-hydroxydopamine, reference compound], for which, in the assay on N27 cells, the “reduction in cell viability compared to the control” value was roughly 50%.
In the case of `C[C@]12CC[C@H]3[C@@H](C[C@@H]4O[C@@]45CC(O)CC[C@]35C)[C@@H]1C/C(=C\c1cccc(F)c1F)C2=O` (stereo partly drawn) [Compound 24, (E)-16-(2,3-Difluorobenzylidene)-3-hydroxy-5α ,6α -epoxy-10,13-dimethyl-1,3,4,7,8,9,10,11,12,13,15,16-dodecahydro-2H-cyclopenta[α ]phenanthren-17(14H)-one], the IC50 in assay [1] is 33.4 µM; in assay [6] it was 56.5 µM; in assay [7] it was 18.9 µM.
On to `Cc1ccc(/C=C2\C[C@H]3[C@@H]4C[C@@H]5O[C@@]56CC(O)CC[C@]6(C)[C@H]4CC[C@]3(C)C2=O)o1` (stereo partly drawn) [Compound 21, (E)-16-[(5-Methylfuran-2-yl)methylene]-3-hydroxy-5α ,6α -epoxy-10,13-dimethyl-1,3,4,7,8,9,10,11,12,13,15,16-dodecahydro-2H-cyclopenta[α ]phenanthren-17(14H)-one], for which the IC50 in assay [1] was 23.4 µM; in assay [6], 46.3 µM; in assay [7], 13.2 µM.
